Data on 15 compounds can be found in patent US11178869B2, “Microbiocidal quinoline (thio)carboxamide derivatives” (priority 2017, dated 2021).

Data set [1] concerns Magnaporthe grisea (Pyricularia oryzae). Description: microbe, parasite or virus in culture. Conditions: read-out: control of Magnaporthe grisea. Format: cell-based.
A further data set relates to Gaeumannomyces graminis. The data set can be described thus: Gaeumannomyces graminis / liquid culture (take-all of cereals). The class given is cell-based. The note with it: compared to untreated control, 4-5 days after application.
The subject of data set [2] is Fusarium culmorum. The data set can be described thus: microbe, parasite or virus in culture. The class given is cell-based. The note with it: read-out: disease control.
Data set [3] has as its system Glomerella lagenarium (Colletotrichum lagenarium). Description: Glomerella lagenarium (Colletotrichum lagenarium) / liquid culture (anthracnose). The note with it: Colletotrichum orbiculare, read-out: disease control. The class given is cell-based.
Data set [4] has as its system Monographella nivalis (Microdochium nivale). The data set can be described thus: Monographella nivalis (Microdochium nivale) / liquid culture (foot rot cereals). Format: cell-based. The note with it: read-out: disease control.
The subject of data set [5] is Botryotinia fuckeliana (Botrytis cinerea). The data set can be described thus: Botryotinia fuckeliana (Botrytis cinerea) / liquid culture (gray mould). Format: cell-based. Conditions: 72 h, read-out: disease control.
Data set [6] concerns Fusarium culmorum. The data set can be described thus: whole plant or invertebrate. The class given is in vivo, Fusarium culmorum on wheat spikelets cv. Monsun. The note with it: in Triticum aestivum, 144 h, read-out: control of Fusarium culmorum.
Setting [7] is: 200 ppm, compared to untreated control, growth inhibition photometrically 3-4 days after application.
[8] abbreviates: 200 ppm, compared to untreated control, growth inhibition photometrically 4-5 days after application.

Like-named read-outs stand apart in the source and are kept apart here.

Consider `CC(C)[C@](C)(C#Cc1ccccc1)NC(=O)c1cnc2c(F)cccc2c1` (single isomer, unassigned) [Compound G-8], for which the inhibition of growth at 20 ppm (in data set [1]; in the data set on Gaeumannomyces graminis) was not below 80% in each case. Besides, the inhibition of growth at 200 ppm (in the data set on Fusarium culmorum [2]; in data set [3] (setting [7]); in data set [4] (setting [8]); in data set [5] (setting [7])) was not below 80% throughout.
As to `CC(CC#CC1CC1)(CC(F)(F)F)NC(=O)c1cnc2c(F)cccc2c1` (centres unmarked) [Compound E-1, N-[4-cyclopropyl-1-methyl-1-(2,2,2-trifluoroethyl)but-3-ynyl]-8-fluoro-quinoline-3-carboxamide], the melting point (as a rule, the temperature of the solid-liquid transition) was in the range of 110 to 112 °C. The inhibition of growth at 200 ppm with Fusarium culmorum [2] is not below 80%. For the same compound, in data set [3], the inhibition of growth at 200 ppm is not below 80%. Also, in data set [4], the inhibition of growth at 200 ppm is not below 80%. Besides, the inhibition of growth at 200 ppm in data set [5] was not below 80%.
`CC(C)C(C#Cc1ccccc1)NC(=O)c1cnc2c(F)cccc2c1` (centres unmarked) [Compound F-3, 8-fluoro-N-(1-isopropyl-3-phenyl-prop-2-ynyl)quinoline-3-carboxamide] gave a melting point of 156 to 158 °C. Besides, the inhibition of growth at 20 ppm in data set [1] was not below 80%. The inhibition of growth at 200 ppm with Fusarium culmorum [2] was not below 80%. In data set [3] (setting [7]), the inhibition of growth at 200 ppm was not below 80%. In addition, the pest or weed control at 200 ppm in the data set on Fusarium culmorum [6] is not below 80%. Besides, in data set [4] (setting [8]), the inhibition of growth at 200 ppm is not below 80%. Further, the inhibition of growth at 200 ppm in data set [5] (setting [7]) is not below 80%.
Consider `O=C(NC(C#Cc1ccccc1)CCC(F)(F)F)c1cnc2c(F)cccc2c1` (centres unmarked) [Compound F-4, 8-fluoro-N-[4,4,4-trifluoro-1-(2-phenylethynyl)butyl]quinoline-3-carboxamide], for which the inhibition of growth at 20 ppm (in data set [1]; in the data set on Gaeumannomyces graminis) was not below 80% in each case. Also, the inhibition of growth at 200 ppm (in the data set with Fusarium culmorum [2]; in data set [4] (setting [8]); in data set [5] (setting [7])) was not below 80% each time.
With `CCC(C#Cc1ccccc1)(CC)NC(=O)c1cnc2c(F)cccc2c1` [Compound F-6, N-(1,1-diethyl-3-phenyl-prop-2-ynyl)-8-fluoro-quinoline-3-carboxamide], the inhibition of growth at 20 ppm in the data set on Gaeumannomyces graminis is not below 80%. The inhibition of growth at 200 ppm (with Fusarium culmorum [2]; in data set [3] (setting [7]); in data set [4] (setting [8]); in data set [5] (setting [7])) was not below 80% in each case.
For `Cc1ccccc1C#CC(C)(NC(=O)c1cnc2c(F)cccc2c1)C(C)C` (centres unmarked) [Compound F-13, 8-fluoro-N-[1-isopropyl-1-methyl-3-(o-tolyl)prop-2-ynyl]quinoline-3-carboxamide], the melting point is 138 to 141 °C. For the same compound, the inhibition of growth at 20 ppm in data set [1] is not below 80%. Also, the inhibition of growth at 20 ppm in the data set on Gaeumannomyces graminis is not below 80%. For the same compound, the inhibition of growth at 200 ppm in the data set on Fusarium culmorum [2] is not below 80%. Further, the inhibition of growth at 200 ppm in data set [3] (setting [7]) was not below 80%. Further, the inhibition of growth at 200 ppm in data set [4] (setting [8]) is not below 80%. For the same compound, the inhibition of growth at 200 ppm in data set [5] (setting [7]) was not below 80%.
In the case of `CCC(C)(C#Cc1ccccc1C)NC(=O)c1cc2cccc(F)c2nc1C` (centres unmarked) [Compound F-14, N-[1-ethyl-1-methyl-3-(o-tolyl)prop-2-ynyl]-8-fluoro-2-methyl-quinoline-3-carboxamide], the inhibition of growth at 20 ppm in data set [1] was not below 80%. Besides, the inhibition of growth at 200 ppm (in the data set with Fusarium culmorum [2]; in data set [3] (setting [7]); in data set [5] (setting [7])) was not below 80% throughout. Moreover, the pest or weed control at 200 ppm with Fusarium culmorum [6] is not below 80%.
For `CCC(C)(C#Cc1ccccc1)NC(=O)c1cc2cccc(F)c2nc1C` (centres unmarked) [Compound F-16, N-(1-ethyl-1-methyl-3-phenyl-prop-2-ynyl)-8-fluoro-2-methyl-quinoline-3-carboxamide], in data set [1], the inhibition of growth at 20 ppm was not below 80%. Also, the inhibition of growth at 200 ppm (in the data set with Fusarium culmorum [2]; in data set [3] (setting [7]); in data set [4] (setting [8]); in data set [5] (setting [7])) was not below 80% each time. In addition, the pest or weed control at 200 ppm in the data set on Fusarium culmorum [6] is not below 80%.
As for `COc1ccc(Cl)cc1C#CC(C)(C)NC(=O)c1cnc2c(F)cccc2c1` [Compound F-23, N-[3-(5-chloro-2-methoxy-phenyl)-1,1-dimethyl-prop-2-ynyl]-8-fluoro-quinoline-3-carboxamide], the inhibition of growth at 20 ppm in the data set on Gaeumannomyces graminis is not below 80%. The inhibition of growth at 200 ppm (with Fusarium culmorum [2]; in data set [3] (setting [7]); in data set [4] (setting [8]); in data set [5] (setting [7])) was not below 80% throughout.
In turn, `Cc1ccc(F)cc1C#CC(C)(C)NC(=O)c1cnc2c(F)cccc2c1` [Compound F-24, 8-fluoro-N-[3-(5-fluoro-2-methyl-phenyl)-1,1-dimethyl-prop-2-ynyl]quinoline-3-carboxamide] displayed an inhibition of growth at 20 ppm in the data set on Gaeumannomyces graminis not below 80%. Further, the inhibition of growth at 200 ppm (with Fusarium culmorum [2]; in data set [3] (setting [7]); in data set [4] (setting [8]); in data set [5] (setting [7])) was not below 80% in each case. In addition, the pest or weed control at 200 ppm in the data set with Fusarium culmorum [6] was not below 80%.
Regarding `CC(C)(C#Cc1ccc(F)cc1F)NC(=O)c1cnc2c(F)cccc2c1` [Compound F-25, N-[3-(2,4-difluorophenyl)-1,1-dimethyl-prop-2-ynyl]-8-fluoro-quinoline-3-carboxamide], the inhibition of growth at 20 ppm in the data set with Gaeumannomyces graminis was not below 80%. In addition, the inhibition of growth at 200 ppm (with Fusarium culmorum [2]; in data set [3] (setting [7]); in data set [4] (setting [8]); in data set [5] (setting [7])) was not below 80% throughout. Also, the pest or weed control at 200 ppm in the data set on Fusarium culmorum [6] was not below 80%.
As to `Cc1ccc(F)c(C#CC(C)(C)NC(=O)c2cnc3c(F)cccc3c2)c1` [Compound F-45, 8-fluoro-N-[3-(2-fluoro-5-methyl-phenyl)-1,1-dimethyl-prop-2-ynyl]quinoline-3-carboxamide], the inhibition of growth at 200 ppm (with Fusarium culmorum [2]; in data set [3] (setting [7]); in data set [4] (setting [8]); in data set [5] (setting [7])) was not below 80% throughout. Besides, in the data set with Fusarium culmorum [6], the pest or weed control at 200 ppm was not below 80%.
In the case of `C#CC(C)(C)NC(=O)c1cnc2c(F)cccc2c1` [Compound F-54, N-(1,1-dimethylprop-2-ynyl)-8-fluoro-quinoline-3-carboxamide], the melting point lay in the range of 148 to 150 °C. Also, the inhibition of growth at 200 ppm with Fusarium culmorum [2] is not below 80%. Further, the inhibition of growth at 200 ppm in data set [4] (setting [8]) was not below 80%.
Turning to `CC(C)C[C@H](C#Cc1ccccc1)NC(=O)c1cnc2c(F)cccc2c1` [Compound G-3, 8-fluoro-N-[(1R)-3-methyl-1-(2-phenylethynyl)butyl]quinoline-3-carboxamide], the inhibition of growth at 20 ppm (in data set [1]; in the data set on Gaeumannomyces graminis) was not below 80% in each case. Further, the inhibition of growth at 200 ppm (in the data set on Fusarium culmorum [2]; in data set [3] (setting [7]); in data set [4] (setting [8]); in data set [5] (setting [7])) was not below 80% each time.
Regarding `CC(C)C[C@](C)(C#Cc1ccccc1)NC(=O)c1cnc2c(F)cccc2c1` [Compound G-6, N-[(1R)-1,3-dimethyl-1-(2-phenylethynyl)butyl]-8-fluoro-quinoline-3-carboxamide], the melting point lay within 128 to 130 °C. The inhibition of growth at 20 ppm in data set [1] was not below 80%. The compound also gave an inhibition of growth at 20 ppm in the data set with Gaeumannomyces graminis not below 80%. In the data set on Fusarium culmorum [2], the inhibition of growth at 200 ppm was not below 80%. In addition, the inhibition of growth at 200 ppm in data set [4] (setting [8]) was not below 80%. Also, in data set [5] (setting [7]), the inhibition of growth at 200 ppm was not below 80%.
